Values quoted from earlier work in US20130230609A1, “ANTIMICROBIAL/PRESERVATIVE COMPOSITIONS COMPRISING BOTANICALS” (priority 2012, published 2013).

Row | Substance | water solubility (in words)
1 | zinc glycerate | moderately water soluble
2 | zinc picolinate | moderately water soluble
